This is an account of results in ChEMBL document CHEMBL5523716, “Discovery of novel EGFR-PROTACs capable of degradation of multiple EGFR-mutated proteins” (Eur J Med Chem, 2024).

In assay [1] the test system is HCC827. The experiment in a line: Antiproliferative activity against human HCC827 cells harboring EGFR Del19 mutant assessed as inhibition of cell growth incubated for 48 to 72 hrs by CCK-8 assay. The assay is classed as functional, cell-based. For orientation: Formazan colour is commonly taken as a measure of viable cells.
Assay [2] concerns NCI-H1975. The assay is described as follows: Antiproliferative activity against human NCI-H1975 cells harboring EGFR L858R/T790M double mutant assessed as inhibition of cell growth incubated for 48 to 72 hrs by CCK-8 assay. In kind it is functional, cell-based.
Assay [3] in a line: Antiproliferative activity against human H1975-TM cells harboring EGFR L858R/T790M/C797S mutant assessed as inhibition of cell growth incubated for 48 to 72 hrs by CCK-8 assay. The assay is classed as functional, cell-based.
Assay [4] deals with A-431. The experiment in a line: Antiproliferative activity against human A-431 cells harboring EGFR wild type assessed as inhibition of cell growth incubated for 48 to 72 hrs by CCK-8 assay. In kind it is functional, cell-based.
The subject of assay [5] is A549. The experiment in a line: Antiproliferative activity against human A549 cells harboring EGFR wild type assessed as inhibition of cell growth incubated for 48 to 72 hrs by CCK-8 assay. In kind it is functional, cell-based.
The nature of assay [6]: Antitumor activity against human H1975-TM cells xenografted in BALB/c mouse assessed as tumor growth inhibition at 10 mg/kg,ip once daily for 14 days relative to control. In kind it is functional. Conditions: 336 h, time 14 day, read-out: TGI. On the technique in general: Xenograft models place foreign cells or tissue in a host animal.
Assay [7] deals with HCC827. The experiment in a line: Antitumor activity against human HCC827 cells xenografted in BALB/c mouse assessed as tumor growth inhibition at 5 mg/kg,ip once daily for 28 days relative to control. The assay is classed as functional. Conditions: HCC827, 672 h, time 28 day, read-out: TGI.
In assay [8] the test system is NCI-H1975. The experiment in a line: Antitumor activity against human NCI-H1975 cells xenografted in BALB/c mouse assessed as tumor growth inhibition at 10 mg/kg,ip once daily for 22 days relative to control. In kind it is functional. Particulars: NCI-H1975, 528 h, time 22 day, read-out: TGI.
Assay [9] concerns the target von Hippel-Lindau disease tumor suppressor/Epidermal growth factor receptor (Homo sapiens, UniProt P00533+P40337). The assay is described as follows: PROTAC activity at VHL/EGFR Del19 mutant in human HCC827 cells assessed as induction of EGFR degradation incubated for 72 hrs by Western blot analysis. In kind it is cell-based. In general terms: A western blot detects proteins with antibodies after separation by electrophoresis.

For assay [10], the system named is von Hippel-Lindau disease tumor suppressor/Epidermal growth factor receptor (Homo sapiens), P00533+P40337 [UNDEFINED MUTATION]. The experiment in a line: PROTAC activity at VHL/EGFR Del19 mutant in human HCC827 cells assessed as maximal EGFR degradation at 3.125 to 200 nM incubated for 72 hrs by Western blot analysis relative to control. The assay is classed as cell-based. Conditions: dose 3.125-200 nM.
von Hippel-Lindau disease tumor suppressor/Epidermal growth factor receptor (Homo sapiens), P00533+P40337 [UNDEFINED MUTATION], sequence (P00533 whole entry, looked up, stated change not applied): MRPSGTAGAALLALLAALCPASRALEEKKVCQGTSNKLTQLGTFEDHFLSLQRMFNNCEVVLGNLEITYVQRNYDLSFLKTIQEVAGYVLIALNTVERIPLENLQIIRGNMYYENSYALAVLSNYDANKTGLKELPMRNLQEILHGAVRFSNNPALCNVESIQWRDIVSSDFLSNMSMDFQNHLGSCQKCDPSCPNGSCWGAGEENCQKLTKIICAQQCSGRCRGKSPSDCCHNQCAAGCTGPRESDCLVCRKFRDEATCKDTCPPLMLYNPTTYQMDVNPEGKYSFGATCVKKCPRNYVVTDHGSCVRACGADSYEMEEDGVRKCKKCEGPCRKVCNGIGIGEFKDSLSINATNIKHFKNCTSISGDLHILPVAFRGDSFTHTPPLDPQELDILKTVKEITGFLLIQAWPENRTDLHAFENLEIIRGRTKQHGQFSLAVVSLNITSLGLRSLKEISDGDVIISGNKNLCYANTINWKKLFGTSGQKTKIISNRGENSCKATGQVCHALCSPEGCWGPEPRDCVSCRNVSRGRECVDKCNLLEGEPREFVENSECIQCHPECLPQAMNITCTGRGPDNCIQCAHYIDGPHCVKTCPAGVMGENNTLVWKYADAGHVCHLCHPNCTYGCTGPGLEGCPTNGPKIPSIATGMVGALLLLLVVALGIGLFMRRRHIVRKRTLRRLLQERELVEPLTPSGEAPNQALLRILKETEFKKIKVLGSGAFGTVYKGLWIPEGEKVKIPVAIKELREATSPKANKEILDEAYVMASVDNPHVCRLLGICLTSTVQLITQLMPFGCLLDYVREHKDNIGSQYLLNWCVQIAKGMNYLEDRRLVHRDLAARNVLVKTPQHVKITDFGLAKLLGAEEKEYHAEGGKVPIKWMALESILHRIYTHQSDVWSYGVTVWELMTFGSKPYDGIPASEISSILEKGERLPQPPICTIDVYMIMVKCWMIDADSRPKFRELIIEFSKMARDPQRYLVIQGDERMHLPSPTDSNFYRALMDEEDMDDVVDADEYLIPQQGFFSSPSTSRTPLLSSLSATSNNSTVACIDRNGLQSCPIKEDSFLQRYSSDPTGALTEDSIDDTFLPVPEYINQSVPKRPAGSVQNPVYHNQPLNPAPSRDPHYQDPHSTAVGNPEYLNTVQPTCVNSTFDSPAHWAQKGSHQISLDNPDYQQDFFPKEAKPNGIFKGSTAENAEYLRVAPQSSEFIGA
von Hippel-Lindau disease tumor suppressor/Epidermal growth factor receptor (Homo sapiens), P00533+P40337 [UNDEFINED MUTATION], sequence (P40337 whole entry, looked up, stated change not applied): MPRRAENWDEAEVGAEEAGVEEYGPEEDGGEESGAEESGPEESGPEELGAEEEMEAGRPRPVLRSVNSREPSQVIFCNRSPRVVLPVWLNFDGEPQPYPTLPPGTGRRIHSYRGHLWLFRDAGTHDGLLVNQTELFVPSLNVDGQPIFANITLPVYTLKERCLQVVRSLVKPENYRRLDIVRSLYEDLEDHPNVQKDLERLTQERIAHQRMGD

The target of assay [11] is von Hippel-Lindau disease tumor suppressor/Epidermal growth factor receptor (Homo sapiens, UniProt P00533+P40337, T790M/L858R). The experiment in a line: PROTAC activity at VHL/EGFR L858R/T790M mutant in human NCI-H1975 cells assessed as induction of EGFR degradation incubated for 72 hrs by Western blot analysis. In kind it is cell-based.
von Hippel-Lindau disease tumor suppressor/Epidermal growth factor receptor (Homo sapiens, UniProt P00533+P40337, T790M/L858R), sequence (P00533 25-1210 T790M/L858R limits assumed, stated change not applied): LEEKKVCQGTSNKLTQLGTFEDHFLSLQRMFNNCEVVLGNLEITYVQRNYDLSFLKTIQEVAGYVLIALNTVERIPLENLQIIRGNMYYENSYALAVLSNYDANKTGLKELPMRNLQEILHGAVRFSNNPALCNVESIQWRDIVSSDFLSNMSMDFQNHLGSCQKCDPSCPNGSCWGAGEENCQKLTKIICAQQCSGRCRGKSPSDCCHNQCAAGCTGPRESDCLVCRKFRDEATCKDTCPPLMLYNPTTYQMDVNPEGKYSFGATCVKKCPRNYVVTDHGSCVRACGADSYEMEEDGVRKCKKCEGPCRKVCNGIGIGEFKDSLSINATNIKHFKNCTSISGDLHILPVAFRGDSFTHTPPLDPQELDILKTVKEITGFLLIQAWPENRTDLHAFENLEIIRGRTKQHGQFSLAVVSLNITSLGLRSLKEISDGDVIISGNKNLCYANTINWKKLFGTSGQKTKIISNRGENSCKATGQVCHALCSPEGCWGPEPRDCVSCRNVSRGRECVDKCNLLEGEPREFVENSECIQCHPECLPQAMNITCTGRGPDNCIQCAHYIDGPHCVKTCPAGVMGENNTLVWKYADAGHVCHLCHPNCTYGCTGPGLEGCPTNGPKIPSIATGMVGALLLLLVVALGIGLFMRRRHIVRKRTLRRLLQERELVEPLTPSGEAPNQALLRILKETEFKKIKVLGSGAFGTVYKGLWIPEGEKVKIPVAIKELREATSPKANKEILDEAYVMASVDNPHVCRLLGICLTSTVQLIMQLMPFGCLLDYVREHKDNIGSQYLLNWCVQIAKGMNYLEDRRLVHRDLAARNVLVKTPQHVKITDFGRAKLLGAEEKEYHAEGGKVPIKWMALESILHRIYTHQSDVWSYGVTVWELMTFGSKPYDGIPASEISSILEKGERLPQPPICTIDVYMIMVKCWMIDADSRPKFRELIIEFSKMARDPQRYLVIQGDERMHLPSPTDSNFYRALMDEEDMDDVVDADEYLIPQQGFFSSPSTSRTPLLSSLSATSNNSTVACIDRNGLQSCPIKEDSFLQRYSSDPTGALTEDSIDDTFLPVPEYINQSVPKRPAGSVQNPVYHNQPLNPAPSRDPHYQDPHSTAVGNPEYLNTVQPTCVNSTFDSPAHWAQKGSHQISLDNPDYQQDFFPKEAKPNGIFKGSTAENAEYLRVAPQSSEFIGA
von Hippel-Lindau disease tumor suppressor/Epidermal growth factor receptor (Homo sapiens, UniProt P00533+P40337, T790M/L858R), sequence (P40337 whole entry, stated change not applied): as the sequence (P40337 whole entry, looked up, stated change not applied) above
The test system of assay [12] is von Hippel-Lindau disease tumor suppressor/Epidermal growth factor receptor (Homo sapiens), P00533+P40337 [L858R,T790M]. The experiment in a line: PROTAC activity at VHL/EGFR L858R/T790M mutant in human NCI-H1975 cells assessed as maximal EGFR degradation at 0.15 to 10 uM incubated for 72 hrs by Western blot analysis relative to control. The assay is classed as cell-based. Particulars: dose 0.15-10 µM.

von Hippel-Lindau disease tumor suppressor/Epidermal growth factor receptor (Homo sapiens, UniProt P00533+P40337), sequence (P00533 whole entry, looked up, stated change not applied): as the sequence (P00533 whole entry, looked up, stated change not applied) above
von Hippel-Lindau disease tumor suppressor/Epidermal growth factor receptor (Homo sapiens, UniProt P00533+P40337), sequence (P40337 whole entry, looked up, stated change not applied): as the sequence (P40337 whole entry, looked up, stated change not applied) above

As usually defined, the IC50 is the concentration that inhibits the measured activity by half. Turning to `C=CC(=O)Nc1cc(Nc2nccc(-c3cn(C)c4ccccc34)n2)c(OC)cc1N(C)CCN(C)C` [OSIMERTINIB], the IC50 in assay [1] was 6 nM; in [2] it was […]; in [3], 6700 nM; in [4], […]; in assay [5], 1230 nM. The inhibition in vivo at 10 mg/kg in [6] was 27%.

In the case of `COc1cc2ncnc(Nc3ccc(F)c(Cl)c3)c2cc1NC(=O)/C=C/CN1CCCCC1` [DACOMITINIB ANHYDROUS], the IC50 in assay [1] is 7 nM; in assay [2] it was 700 nM; in [3] it was 7010 nM; in [4] it was 1960 nM; in assay [5], 490 nM. Also, the inhibition in vivo at 5 mg/kg in assay [7] was determined as 90%. Also, the inhibition in vivo at 10 mg/kg in [8] turned out to be 67%.

As usually defined, the DC50 is the midpoint of the concentration-degradation curve. On to `CCN(CC)C/C=C/C(=O)Nc1cc2c(Nc3ccc(F)c(Cl)c3)ncnc2cc1OCc1cn(CCCCCCCCCCC(=O)N[C@H](C(=O)N2C[C@H](O)C[C@H]2C(=O)NCc2ccc(-c3scnc3C)cc2)C(C)(C)C)nn1`, for which the IC50 is 15 nM in assay [1]; 380 nM in assay [2]; more than 20000 nM in [3]; more than 20000 nM in assay [4]; more than 20000 nM in assay [5]. For the same compound, the DC50 was found to be 28.7 nM in assay [9] and 380 nM in assay [11]. For the same compound, the results for the Emax in assay [10] and in assay [12] were 99% and 93%, respectively.
